Measured values from patent US9302999B2, “Substituted triazoles as herbicides” (E. I. DU PONT DE NEMOURS AND COMPANY, priority 2012, dated 2016).

Assays:
Format in all cases: in vivo
corn (Zea mays) = test: Test A pre-/postemergence: corn
Summary of the method: (§1)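 Pre: directed soil spray after planting in loam + sand. Post: same formulation (non-phytotoxic solvent + surfactant) on 1–2-leaf plants, 2–10 cm. Greenhouse ~10 d; visual injury 0–100 vs untreated.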

[1] = tested on: wheat (Triticum aestivum); test: Test A pre-/postemergence: wheat
Summary of the method: as §1

[2] = tested on: barnyardgrass (Echinochloa crus-galli); test: Test B flooded paddy: barnyardgrass; settings: Flood; 250 g ai/ha; applied to paddy water at 2-leaf stage; visually evaluated after 13 to 15 days
Summary of the method: (§2)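 Plants were grown to the 2-leaf stage and pots flooded to 3 cm above soil. Compounds were applied directly into the paddy water, with depth kept for the test. After 13–15 days in greenhouse, response was rated visually against controls on a 0 (no effect) to 100 (complete control) scale.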

[3] = tested on: velvetleaf (Abutilon theophrasti); test: Test A pre-/postemergence: velvetleaf
Summary of the method: as §1

[4] = tested on: pigweed (Amaranthus retroflexus); test: Test A pre-/postemergence: pigweed
Summary of the method: as §1

[5] = tested on: morningglory (Ipomoea spp.); test: Test A pre-/postemergence: morningglory
Summary of the method: as §1

rice (Oryza sativa) = test: Test B flooded paddy: rice; settings: Flood; 250 g ai/ha; applied to paddy water at 2-leaf stage; visually evaluated after 13 to 15 days
Summary of the method: as §2

[6] = tested on: crabgrass, large (large crabgrass, Digitaria sanguinalis); test: Test A pre-/postemergence: crabgrass, large
Summary of the method: as §1

[7] = tested on: sedge, umbrella (small-flower umbrella sedge Cyperus difformis); test: Test B flooded paddy: sedge, umbrella; settings: Flood; 250 g ai/ha; applied to paddy water at 2-leaf stage; visually evaluated after 13 to 15 days
Summary of the method: as §2

[8] = tested on: foxtail, giant (giant foxtail, Setaria faberii); test: Test A pre-/postemergence: foxtail, giant
Summary of the method: as §1

[9] = tested on: ducksalad (Heteranthera limosa); test: Test B flooded paddy: ducksalad; settings: Flood; 250 g ai/ha; applied to paddy water at 2-leaf stage; visually evaluated after 13 to 15 days
Summary of the method: as §2

[10] = tested on: barnyardgrass (Echinochloa crus-galli); test: Test A pre-/postemergence: barnyardgrass
Summary of the method: as §1

[11] = Postemergence, 125 g ai/ha, 0 to 100 scale, 0 is no effect, 100 is complete control
[12] = Postemergence, 500 g ai/ha, 0 to 100 scale, 0 is no effect, 100 is complete control
[13] = Preemergence, 125 g ai/ha, 0 to 100 scale where 0 is no effect and 100 is complete control
[14] = Preemergence, 500 g ai/ha, 0 to 100 scale (0 no effect, 100 complete control)
[15] = Postemergence, 500 g ai/ha, visual rating on 0 to 100 scale (0 no effect, 100 complete control), approximately ten days
[16] = Preemergence, 125 g ai/ha, 0 to 100 scale (0 no effect, 100 complete control)
[17] = Preemergence, 500 g ai/ha, 0 to 100 scale, 0 is no effect, 100 is complete control

With `CCCCc1nn(-c2ccc(C(F)(F)F)cc2)nc1Oc1ccnc(C(F)(F)F)c1` [Compound 184] the “Plant response rating, Corn” value (corn (Zea mays); [11]) was 10, the “Corn plant response rating” value (corn (Zea mays); [12]) was 20 and the “Plant response rating, Corn” value (corn (Zea mays); [13]) was 0. The “Plant response rating, Corn” value (corn (Zea mays); [14]) was 0, the “Plant response rating, Wheat” value [1, 11] was 10 and the “Wheat plant response rating” value [1, 12] was 20. The “Plant response rating, Wheat” value [1, 13] was 0, the “Plant response rating, Wheat” value [1, 14] was 0 and the “Plant response rating, Barnyardgrass (0 to 100 scale, 0 is no effect, 100 is complete control)” value [2] was 25. For the same compound, the “Plant response rating, Velvetleaf” value [3, 11] was 40, the “Velvetleaf plant response rating” value [3, 12] was 90 and the “Plant response rating, Velvetleaf” value [3, 13] was 0. For the same compound, the “Plant response rating, Velvetleaf” value [3, 14] was 30, the “Plant response rating, Pigweed” value [4, 11] was 100 and the “Pigweed plant response rating” value [4, 12] was 100. For the same compound, the “Plant response rating, Pigweed” value [4, 13] was 90, the “Plant response rating, Pigweed” value [4, 14] was 100 and the “Plant response rating, Morningglory” value [5, 11] was 30. The “Morningglory plant response rating” value [5, 12] was 100, the “Plant response rating, Morningglory” value [5, 13] was 0 and the “Plant response rating, Morningglory” value [5, 14] was 10. For the same compound, the “Plant response rating, Rice (0 to 100 scale, 0 is no effect, 100 is complete control)” value (rice (Oryza sativa)) was 25, the “Plant response rating, Crabgrass, Large” value [6, 11] was 50 and the “Crabgrass, Large plant response rating” value [6, 12] was 90. For the same compound, the “Plant response rating, Crabgrass, Large” value [6, 13] was 70, the “Plant response rating, Crabgrass, Large” value [6, 14] was 100 and the “Plant response rating, Sedge, Umbrella (0 to 100 scale, 0 is no effect, 100 is complete control)” value [7] was 60. For the same compound, the “Plant response rating, Foxtail, Giant” value [8, 11] was 30, the “Foxtail, Giant plant response rating” value [8, 12] was 80 and the “Plant response rating, Foxtail, Giant” value [8, 13] was 70. For the same compound, the “Plant response rating, Foxtail, Giant” value [8, 14] was 90, the “Plant response rating, Ducksalad (0 to 100 scale, 0 is no effect, 100 is complete control)” value [9] was 0 and the “Plant response rating, Barnyardgrass” value [10, 11] was 10. For the same compound, the “Barnyardgrass plant response rating” value [10, 12] was 30, the “Plant response rating, Barnyardgrass” value [10, 13] was 0 and the “Plant response rating, Barnyardgrass” value [10, 14] was 50.

In the case of `Cc1nn(-c2ccc(F)c(F)c2)nc1Cc1ccnc(C(F)F)c1` [Compound 136], the “Corn plant response rating” value (corn (Zea mays); [11]) is reported as 20, the “Corn plant response rating” value (corn (Zea mays); [15]) is reported as 40 and the “Plant response rating, Corn” value (corn (Zea mays); [13]) is reported as 0. For the same compound, the “Plant response rating, Corn” value (corn (Zea mays); [14]) was 10, the “Plant response rating, Wheat” value [1, 11] was 30 and the “Wheat plant response rating” value [1, 15] was 30. For the same compound, the “Plant response rating, Wheat” value [1, 13] was 0, the “Plant response rating, Wheat” value [1, 14] was 10 and the “Plant response rating, Barnyardgrass (0 to 100 scale, 0 is no effect, 100 is complete control)” value [2] was 45. The “Plant response rating, Velvetleaf” value [3, 11] was 90, the “Velvetleaf plant response rating” value [3, 15] was 100 and the “Plant response rating, Velvetleaf” value [3, 13] was 30. For the same compound, the “Plant response rating, Velvetleaf” value [3, 14] was 60, the “Plant response rating, Pigweed” value [4, 11] was 100 and the “Pigweed plant response rating” value [4, 15] was 100. For the same compound, the “Plant response rating, Pigweed” value [4, 13] was 90, the “Plant response rating, Pigweed” value [4, 14] was 90 and the “Plant response rating, Morningglory” value [5, 11] was 70. For the same compound, the “Morningglory plant response rating” value [5, 15] was 100, the “Plant response rating, Morningglory” value [5, 13] was 20 and the “Plant response rating, Morningglory” value [5, 14] was 60. The “Plant response rating, Rice (0 to 100 scale, 0 is no effect, 100 is complete control)” value (rice (Oryza sativa)) was 35, the “Crabgrass, Large plant response rating” value [6, 11] was 60 and the “Crabgrass, Large plant response rating” value [6, 15] was 90. For the same compound, the “Plant response rating, Crabgrass, Large” value [6, 13] was 80, the “Plant response rating, Crabgrass, Large” value [6, 14] was 100 and the “Plant response rating, Sedge, Umbrella (0 to 100 scale, 0 is no effect, 100 is complete control)” value [7] was 85. The “Foxtail, Giant plant response rating” value [8, 11] was 90, the “Foxtail, Giant plant response rating” value [8, 15] was 90 and the “Plant response rating, Foxtail, Giant” value [8, 13] was 100. The “Plant response rating, Foxtail, Giant” value [8, 14] was 100, the “Plant response rating, Ducksalad (0 to 100 scale, 0 is no effect, 100 is complete control)” value [9] was 75 and the “Barnyardgrass plant response rating” value [10, 11] was 60. For the same compound, the “Barnyardgrass plant response rating” value [10, 15] was 90, the “Plant response rating, Barnyardgrass” value [10, 13] was 70 and the “Plant response rating, Barnyardgrass” value [10, 14] was 100.

With `Cc1nn(-c2ccc(Br)cc2)nc1Oc1ccnc(C(F)(F)F)c1` [Compound 53] the “Corn plant response rating” value (corn (Zea mays); [11]) was 30, the “Corn plant response rating” value (corn (Zea mays); [15]) was 40 and the “Plant response rating, Corn” value (corn (Zea mays); [16]) was 0. For the same compound, the “Plant response rating, Corn” value (corn (Zea mays); [17]) was 20, the “Wheat plant response rating” value [1, 11] was 20 and the “Wheat plant response rating” value [1, 15] was 30. The “Plant response rating, Wheat” value [1, 16] was 10, the “Plant response rating, Wheat” value [1, 17] was 30 and the “Plant response rating, Barnyardgrass (0 to 100 scale, 0 is no effect, 100 is complete control)” value [2] was 60. The “Velvetleaf plant response rating” value [3, 11] was 80, the “Velvetleaf plant response rating” value [3, 15] was 100 and the “Plant response rating, Velvetleaf” value [3, 16] was 10. The “Plant response rating, Velvetleaf” value [3, 17] was 50, the “Pigweed plant response rating” value [4, 11] was 100 and the “Pigweed plant response rating” value [4, 15] was 100. For the same compound, the “Plant response rating, Pigweed” value [4, 16] was 90, the “Plant response rating, Pigweed” value [4, 17] was 100 and the “Plant response rating, Morningglory” value [5, 16] was 30. The “Plant response rating, Morningglory” value [5, 17] was 40, the “Plant response rating, Rice (0 to 100 scale, 0 is no effect, 100 is complete control)” value (rice (Oryza sativa)) was 50 and the “Crabgrass, Large plant response rating” value [6, 11] was 90. The “Crabgrass, Large plant response rating” value [6, 15] was 90, the “Plant response rating, Crabgrass, Large” value [6, 16] was 100 and the “Plant response rating, Crabgrass, Large” value [6, 17] was 100. The “Plant response rating, Sedge, Umbrella (0 to 100 scale, 0 is no effect, 100 is complete control)” value [7] was 85, the “Foxtail, Giant plant response rating” value [8, 11] was 90 and the “Foxtail, Giant plant response rating” value [8, 15] was 90. For the same compound, the “Plant response rating, Foxtail, Giant” value [8, 16] was 100, the “Plant response rating, Foxtail, Giant” value [8, 17] was 100 and the “Plant response rating, Ducksalad (0 to 100 scale, 0 is no effect, 100 is complete control)” value [9] was 85. For the same compound, the “Barnyardgrass plant response rating” value [10, 11] was 90, the “Barnyardgrass plant response rating” value [10, 15] was 90 and the “Plant response rating, Barnyardgrass” value [10, 16] was 80. The “Plant response rating, Barnyardgrass” value [10, 17] was 100.
